Measurements as given in article PMC9000801, “Bioactivities and Mode of Actions of Dibutyl Phthalates and Nocardamine from Streptomyces sp. H11809” (Molecules, 2022).

Biological target: T1, human GSK-3β (Hs GSK-3β) (Homo sapiens, UniProt P49841)
T1 construct: gene GSK3B
Assay: Kinase-Glo Plus luminescent kinase assay with recombinant enzyme; Michaelis-Menten and Lineweaver-Burk kinetics
Format: biochemical

T1 sequence (P49841 whole entry): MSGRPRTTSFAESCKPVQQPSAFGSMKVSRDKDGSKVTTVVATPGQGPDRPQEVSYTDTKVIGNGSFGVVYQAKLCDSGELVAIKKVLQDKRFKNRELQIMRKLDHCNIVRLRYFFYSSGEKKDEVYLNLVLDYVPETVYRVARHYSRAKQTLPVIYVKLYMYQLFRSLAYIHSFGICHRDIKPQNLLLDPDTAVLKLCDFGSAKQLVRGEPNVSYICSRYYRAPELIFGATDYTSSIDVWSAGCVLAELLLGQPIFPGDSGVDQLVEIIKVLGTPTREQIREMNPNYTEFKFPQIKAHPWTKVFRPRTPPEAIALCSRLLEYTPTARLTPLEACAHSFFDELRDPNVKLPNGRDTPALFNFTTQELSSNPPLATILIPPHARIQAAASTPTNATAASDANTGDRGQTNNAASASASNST

Work on `CCCCOC(=O)c1ccccc1C(=O)OCCCC` [DBP, dibutyl phthalate] yielded an IC50 of 2 µM.
